Literature values, collected in US7727757B2, “Methods of eliciting antiviral immune responses utilizing viral particles comprising photoinactivated reverse transcriptase” (priority 1998, dated 2010).
Entries after “also recorded” stand apart in the source; their conditions may differ.

Key:
[1] = molecular target: HIV-1 reverse transcriptase (Human immunodeficiency virus type 1 group M subtype B, UniProt P04585); conditions: for inhibition of RT (in words): prior-art statement; for IC50: value stated without method or source, used to set the incubation concentration, read-out: IC50 (50% inhibitory concentration)
[2] = tested on: HIV; conditions: short exposure, without photoinactivation
[3] = tested on: ERT in HIV virions
[4] = tested on: HIV infected cells; conditions: compound provided to HIV infected cells

SMILES | inhibition of RT (in words) [1] | IC50 [1] [nM] | HIV infectivity after exposure of isolated virus [2] | inhibition of ERT in HIV virions [3] | infectivity of nascent virus from HIV infected cells [4]
CC(C)=CCOc1cc(NC(=S)c2ccoc2C)ccc1Cl [UC781™, N-[4-chloro-3-(3-methyl-2-butenyloxy)phenyl]-2-methyl-3-furanocarbothiamide] | potent inhibitors of RT | 0.2 | eliminate HIV infectivity | inhibit ERT in HIV virions | production of noninfectious nascent virus; also recorded: inactivate nascent virus from HIV-infected cells
CCN1c2cc(N=[N+]=[N-])ccc2N(C)C(=O)c2cccnc21 [azido dipyridodiazepinona, 9-Azido-5,6-dihydro-11-ethyl-6-methyl-11H-pyrido[2,3-b][1,5]benzodiazepin-5-one] | potent inhibitors of RT | 160 | – | – | –
